Test results: patent US7476767B2, “Alpha-hydroxy sulfonate aldehydes, germicidal compositions containing the alpha-hydroxy sulfonate aldehydes, or mixtures of alpha-hydroxy sulfonate aldehydes and phthalaldehydes, and methods of using the compounds or compositions for disinfection or sterilization” (Ethicon, Inc., priority 2004, dated 2009)

Assays:
[1] = test system: Mycobacterium terrae bacteria; experiment: Bacterial suspension test; format: cell-based; settings: for Log Reductions/mL: 20° C.; for Germicidal Efficacy: Table 14 summary
Procedure: In this test method, 9 mL of the germicide to be tested is placed in a tube, put into a water bath and allowed to come to the desired temperature. One mL of the test organism, including at least 7 logs/mL of Mycobacterium terrae bacteria, is added to the 9 mL of the germicide to be tested. […] It will be appreciated by those skilled in the art that other concentrations may be utilized by proper dilution and accounting. At appropriate time intervals, 1 mL aliquots of the germicide-cell suspension were removed and added directly into 9 mL of a 1% glycine solution (neutralizer) and mixed thoroughly to neutralize the germicide in the transferred suspension. The glycine solution was prepared from solid glycine, which is available from VWR Scientific Products, among others. The above-identified 10 mL neutralized solution was then poured through a membrane filter having an average pore size of 0.45 micrometers. The filter was then rinsed twice with at least 150 mL of the 1% glycine solution per rinse. The filter was then placed on an agar plate and incubated for twenty-one days at 37° C. In the above procedure, if dilution was needed, then the 1 mL germicidal-cell suspension was diluted in 99 mL of a phosphate buffer before addition to the 9 mL of the 1% glycine solution. The phosphate buffer was DiLu-LoK™ Butterfields Phosphate Buffer, available from Hardy Diagnostics, of Santa Maria, Calif. The surviving colonies are then counted. The data is plotted as S/So vs. time. So is the initial count of the bacteria in the above 10 mL solution which is at least 10^6 bacteria/mL, and S is the surviving bacteria from the above filter on the agar plate. The results of the experiments were presented in terms of log reductions. Log reduction is the difference between log(So) and log(S). As one example, if log(So)=6.2, and if there were 100 survivors, then the log(S)=2, and the log reduction was reported as 4.2.

Solubility in water = format: physicochemical

Molecule: O=CC(C=O)c1ccccc1 [phenyl-propanedial]
- Log Reductions/mL ([1]; Table 15: ~1%, 5 min): 4.5 log reductions/mL
- solubility in water (Solubility in water): about 1%

Molecule: O=Cc1ccccc1C=O [OPA, phthalaldehyde]
- Germicidal Efficacy [1]: Good
- solubility in water (Solubility in water): about 5 % by weight

Molecule: O=Cc1ccccc1C(O)S(=O)(=O)[O-].[Na+] (centres unmarked) [(2-formyl-phenyl)-hydroxy-methane sulfonic acid,sodium salt]
- Log Reductions/mL ([1]; 9.1%, 5 min): Confluent

Molecule: O=Cc1ccc(C=O)cc1 [TPA, terephthalaldehyde]
- Log Reductions/mL ([1]; 0.2%, dissolved in 20% isopropanol, 5 min): Confluent
- Germicidal Efficacy [1]: Poor

Molecule: O=Cc1ccc(Cl)cc1C=O [4-chloro-phthalaldehyde]
- Log Reductions/mL ([1]; 2.7 w/v % in 20% isopropanol, 5 min): Total Kill

Molecule: O=Cc1ccc(Br)cc1C=O [4-bromo-phthalaldehyde]
- Log Reductions/mL ([1]; 0.1%, 30 min exposure): Total Kill

Molecule: O=Cc1cccc(C=O)c1 [IPA, isophthalaldehyde]
- Log Reductions/mL ([1]; Table 11: 0.3%, dissolved in 20% isopropanol, 5 min): Confluent
- Germicidal Efficacy [1]: Poor
- Log Reductions/mL ([1]; Table 15: 0.3%, dissolved in 20% isopropanol, 5 min): Confluent

Molecule: O=Cc1ccc(F)cc1C=O [4-fluoro-phthalaldehyde]
- Log Reductions/mL ([1]; 0.25%, 60 min exposure): Total Kill

Molecule: 4-pyridinyl-propanedial
- Log Reductions/mL ([1]; Saturated (~2.3% w/v), 5 min): 4.0 log reductions/mL
